{"source": "patent US6248718A", "about": "“Lesion-directed dry dosage forms of antibacterial agents for the treatment of acute mucosal infections of the oral cavity” (priority 1999, dated 2001)", "key": {"[1]": {"test": "Local concentrations of penicillin in saliva after topical medication of various doses (Example VII)", "type": "in vivo, human", "conditions": "for Penicillin concentration in saliva / concentration at 0.1 h / concentration at 20 min / concentration at 40 min / concentration at 1 h / concentration at 2 h: studies 1-3; for concentration at 0.1 h / concentration at 20 min / concentration at 40 min / concentration at 1 h / concentration at 2 h: human, in vivo, topical or ocular; for concentration at 2 h: 120 min, after water at 60 min", "procedure": "Five healthy adult volunteers, three men and two women, were selected for this study. The same volunteers were used as the subjects for three studies, and the results are summarized as follows.\nOn the day of study, two hours after breakfast, the volunteers were given a dose of 100 mg, 50 mg, 20 mg, 10 mg and 2 mg of USP grade penicillin G potassium powder respectively. The drug powder was placed in the right oral sulcus between the lower gum and the buccal mucosa to be dissolved in a minimum amount of saliva. This loculated pocket of saliva was not to be swallowed and was not to be further diluted by saliva from other parts of the mouth for one hour. At 6 minutes, 20 minutes, 40 minutes and 60 minutes after drug application, an aliquot of 0.01 ml was taken from this pocket of saliva and added into a test tube containing 10 ml of nutrient broth to give a 1,000 times dilution. After being mixed well, aliquots of the mixtures of saliva sample and nutrient broth were forced to pass through bacterial filters into sterile test tubes. Then 0.8 ml of each 1:1,000 diluted filtrate was pipetted and added to 3.2 ml of nutrient broth to make an additional 5 times dilution in a total volume of 4 ml. Two ml was pipetted from the latter to make a serial double dilution of saliva sample in 2 ml of nutrient broth, as described above under a, in 12 test tubes. The dilution factor for the saliva sample in test No. 1 was 1:5,000 and increased progressively to 1:10,240,000 in test tube No. 12.\nAfter the 60-minute sample was taken, the subjects were given an 8 oz. glass of water to drink or to rinse his or her mouth, but refrained from drinking and eating for another hour. At the end of this last hour, i.e. about 2 hours after the drug application, another saliva sample of 0.2 ml was withdrawn and added to 3.8 ml of nutrient broth to make a 1:20 dilution and the mixture was forced to pass a bacterial filter into a sterile test tube. Two (2 ) ml of the filtrate was pipetted from this 1:20 diluted mixture for antibiotic activity assays.\nEach filtered mixture in test tube was inoculated with 0.1 ml of a 1:1,000 dilution of a 12 hour broth culture of Staphylococcus aureus ATCC 29213.\nA row of 6 test tubes each containing 2 ml of nutrient broth with decreasing concentrations of penicillin G potassium from 6.2 to 0.16 mcg/ml, using a serial double dilution method described in a., was prepared and similarly inoculated with 0.1 ml broth culture of Staphylococcus aureus ATCC 29213 as the standard.\nAll test tubes were incubated at 37° C. for 18 hours and observed for bacterial growth against an inoculated broth containing neither antibiotic nor saliva samples.\nThe test tube of the highest number with the highest dilution factor of saliva in nutrient broth in which no bacterial growth was observed was interpreted as containing an equivalent of penicillin G potassium at 0.75 mcg/ml. Using the dilution factors, it was calculated that, after topical application of 2 to 100 mg of penicillin G potassium dry powder, the concentrations of penicillin G potassium in the saliva at the site of medication within the first hour and one hour after purging the mouth with water were as follows."}, "[2]": {"test": "Local concentration of penicillin in saliva after a troche containing 50 mg penicillin G", "type": "in vivo, human", "conditions": "50 mg troche, end of one hour; 60 min", "procedure": "The local concentration of penicillin in the saliva was determined as follows. […] This loculated pocket of saliva was not swallowed and was not to be diluted with excess saliva from other parts of the mouth for one hour. Two samples were taken for assay to determine the peak and trough local concentrations of penicillin during the one-hour duration of medicinal treatment. At the time when the troche was completely dissolved and one hour later, aliquots of 10 microliters were pipetted from this pocket of saliva solution at the site of medication, representing the peak level and the trough level of antibiotic concentration, and transferred into 10 ml of distilled water to make a 1:1.000 dilution and into 1 ml of distilled water to make a 1:100 dilution, respectively. The diluted saliva antibiotic solutions were passed through a sterile bacteria-filter to remove any bacterial or fungal contaminants of the oral flora.\nFor determination of the peak concentration, 1 ml of the bacteria-free filtrate was further diluted with 9 ml of nutrient broth to achieve a 1:10,000 dilution of the saliva. Then a serial two-fold dilution was made of this 1:10,000 diluted saliva sample with an equal volume of nutrient broth in a roll of test tubes to obtain a series of 1 ml aliquots of nutrient broth in which the saliva was diluted to 20,000, 40,000, 80,000, 160,000, 320,000, 640,000, 1,280,000 and 2,560,000 folds respectively. […] Thus the final dilutions of the saliva sample were in the range of 40,000 to 5,120,000 folds.\nFor determining the trough concentration, the entire 1 ml of the 1:100 diluted saliva filtrate was used to make the serial dilutions so that the final dilutions of saliva sample were in the range of 4,000 to 256,000 folds in the final test culture.\nAs control standards, a series of test tubes containing 1 ml of nutrient broth with varying concentrations of penicillin G potassium salt ranging from 0.1 units to 10 units/ml were similarly mixed with an equal volume of nutrient broth freshly inoculated with the standard tubes of Staphylococcus aureus. Both the test and control standard tubes were incubated at 37° C. for 18 hours. Among the test tubes showing no gross evidence of bacterial growth, the one containing the highest dilution of saliva and the one containing the least amount of penicillin G were considered as having the identical concentration of penicillin, i.e. the MIC of the staphylococcus aureus."}}, "note": "Several values for one entry are separate records, joined by “and”; a condition that tells them apart may be missing. Equal values may be shown once.", "data": [{"smiles": "CC1(C)S[C@@H]2[C@H](NC(=O)Cc3ccccc3)C(=O)N2[C@H]1C(=O)O", "note": "[penicillin G potassium]", "values": [{"measurement": "Penicillin concentration in saliva", "setting": "[1]; 2 mg topical powder, 20 min", "result": "below 3.75 mg/ml"}, {"measurement": "Penicillin concentration in saliva", "setting": "[1]; 2 mg topical powder, 20 min, listed as Penicillin G Potassium", "result": "< 3.75", "unit": "mg/mL"}, {"measurement": "Penicillin concentration in saliva", "setting": "[1]; 2 mg topical powder, 40 min", "result": "< 3.75", "unit": "mg/mL"}, {"measurement": "Penicillin concentration in saliva", "setting": "[1]; 2 mg topical powder, 60 min", "result": "< 3.75", "unit": "mg/mL"}, {"measurement": "Penicillin concentration in saliva", "setting": "[1]; 10 mg topical powder, 6 min", "result": 60, "unit": "mg/mL"}, {"measurement": "Penicillin concentration in saliva", "setting": "[1]; 10 mg topical powder, 60 min", "result": "3.75 mg/mL and 7.5 mg/mL"}, {"measurement": "Penicillin concentration in saliva", "setting": "[1]; 20 mg topical powder, 6 min", "result": "240 mg/mL and 120 mg/mL"}, {"measurement": "Penicillin concentration in saliva", "setting": "[1]; 20 mg topical powder, 20 min", "result": 60, "unit": "mg/mL"}, {"measurement": "Penicillin concentration in saliva", "setting": "[1]; 20 mg topical powder, 60 min", "result": 7.5, "unit": "mg/mL"}, {"measurement": "Penicillin concentration in saliva", "setting": "[1]; 50 mg topical powder, 6 min", "result": "240 mg/mL and 480 mg/mL"}, {"measurement": "Penicillin concentration in saliva", "setting": "[1]; 50 mg topical powder, 20 min", "result": "120 mg/mL and 240 mg/mL"}, {"measurement": "Penicillin concentration in saliva", "setting": "[1]; 50 mg topical powder, 60 min", "result": 7.5, "unit": "mg/mL"}, {"measurement": "Penicillin concentration in saliva", "setting": "[1]; 100 mg topical powder, 6 min", "result": 480, "unit": "mg/mL"}, {"measurement": "Penicillin concentration in saliva", "setting": "[1]; 100 mg topical powder, 20 min", "result": "240 mg/mL and 120 mg/mL"}, {"measurement": "Penicillin concentration in saliva", "setting": "[1]; 100 mg topical powder, 40 min", "result": 60, "unit": "mg/mL"}, {"measurement": "Penicillin concentration in saliva", "setting": "[1]; 100 mg topical powder, 60 min", "result": "30 mg/mL and 15 mg/mL"}, {"measurement": "initial peak concentrations at the site of medication", "setting": "[1]; doses of 2 mg to 100 mg powder", "result": "7.5 to 960", "unit": "mg/mL"}, {"measurement": "dose required to maintain minimum 3.75 mg/ml in saliva for one hour", "setting": "[1]; dry powder", "result": "at least 10 mg"}, {"measurement": "concentration at 0.1 h", "setting": "[1]; 2 mg topical powder, 6 min", "result": 15000, "unit": "µg/mL"}, {"measurement": "concentration at 20 min", "setting": "[1]; 2 mg topical powder, 20 min", "result": 7500, "unit": "µg/mL"}, {"measurement": "concentration at 40 min", "setting": "[1]; 2 mg topical powder, 40 min", "result": 3750, "unit": "µg/mL"}, {"measurement": "concentration at 1 h", "setting": "[1]; 2 mg topical powder, 60 min", "result": "< 3750", "unit": "µg/mL"}, {"measurement": "concentration at 2 h", "setting": "[1]; 2 mg topical powder", "result": "< 15", "unit": "µg/mL"}, {"measurement": "concentration at 0.1 h", "setting": "[1]; 10 mg topical powder, 6 min", "result": 60000, "unit": "µg/mL"}, {"measurement": "concentration at 20 min", "setting": "[1]; 10 mg topical powder, 20 min", "result": 30000, "unit": "µg/mL"}, {"measurement": "concentration at 40 min", "setting": "[1]; 10 mg topical powder, 40 min", "result": 15000, "unit": "µg/mL"}, {"measurement": "concentration at 1 h", "setting": "[1]; 10 mg topical powder, 60 min", "result": 3750, "unit": "µg/mL"}, {"measurement": "concentration at 2 h", "setting": "[1]; 10 mg topical powder", "result": "< 15", "unit": "µg/mL"}, {"measurement": "concentration at 0.1 h", "setting": "[1]; 20 mg topical powder, 6 min", "result": 120000, "unit": "µg/mL"}, {"measurement": "concentration at 20 min", "setting": "[1]; 20 mg topical powder, 20 min", "result": 60000, "unit": "µg/mL"}, {"measurement": "concentration at 40 min", "setting": "[1]; 20 mg topical powder, 40 min", "result": 7500, "unit": "µg/mL"}, {"measurement": "concentration at 1 h", "setting": "[1]; 20 mg topical powder, 60 min", "result": 7500, "unit": "µg/mL"}, {"measurement": "concentration at 2 h", "setting": "[1]; 20 mg topical powder", "result": "< 15", "unit": "µg/mL"}, {"measurement": "concentration at 0.1 h", "setting": "[1]; 50 mg topical powder, 6 min", "result": 480000, "unit": "µg/mL"}, {"measurement": "concentration at 20 min", "setting": "[1]; 50 mg topical powder, 20 min", "result": 240000, "unit": "µg/mL"}, {"measurement": "concentration at 40 min", "setting": "[1]; 50 mg topical powder, 40 min", "result": 30000, "unit": "µg/mL"}, {"measurement": "concentration at 1 h", "setting": "[1]; 50 mg topical powder, 60 min", "result": 7500, "unit": "µg/mL"}, {"measurement": "concentration at 2 h", "setting": "[1]; 50 mg topical powder", "result": "< 15", "unit": "µg/mL"}, {"measurement": "concentration at 0.1 h", "setting": "[1]; 100 mg topical powder, 6 min", "result": 960000, "unit": "µg/mL"}, {"measurement": "concentration at 20 min", "setting": "[1]; 100 mg topical powder, 20 min", "result": 240000, "unit": "µg/mL"}, {"measurement": "concentration at 40 min", "setting": "[1]; 100 mg topical powder, 40 min", "result": 30000, "unit": "µg/mL"}, {"measurement": "concentration at 1 h", "setting": "[1]; 100 mg topical powder, 60 min", "result": 15000, "unit": "µg/mL"}, {"measurement": "concentration at 2 h", "setting": "[1]; 100 mg topical powder", "result": "< 15", "unit": "µg/mL"}, {"measurement": "concentration in saliva after drinking", "setting": "[1]; one hour after 8 oz. of fluid, all doses", "result": "< 15", "unit": "µg/mL"}, {"measurement": "local trough concentration in saliva", "setting": "[2]", "result": "7.5 to 15", "unit": "mg/mL"}]}]}
